Measurements from patent US5200309A, “Color photographic materials including magenta coupler, carbonamide compound and aniline or amine compound, and methods” (Eastman Kodak Company, priority 1991, dated 1993).

Assay: Potentiometric titration of dispersion pKa of couplers (two-phase aqueous dispersion)
Format: physicochemical
Excerpt: Preferred two-equivalent magenta dye-forming couplers for the practice of this invention include those that have pKa values of less than 10.0 when dispersed together with a coupler solvent. Potentiometric titrations were used to measure pKa values for some of the preferred couplers of the invention as aqueous dispersions. In these two-phase mixtures, the term pKa denotes the aqueous buffer pH at which half of the coupler in the oil phase is ionized or ion paired. Table I lists dispersion pKa values measured with 0.50 M potassium counter ion.

[1] = coupler solvent S2, coupler:solvent weight ratio 1:2, 0.50 M potassium
[2] = coupler solvent C5, coupler:solvent weight ratio 1:1, 0.50 M potassium
[3] = coupler solvent S1, coupler:solvent weight ratio 1:1, 0.50 M potassium

| pKa(0.5M K+) [1] | pKa(0.5M K+) [2] | pKa(0.5M K+) [3] | pKa(0.5M K+) (coupler solvent C1, coupler:solvent weight ratio 1:2, 0.50 M potassium) | Structure (SMILES) |
| --- | --- | --- | --- | --- |
| 8.5 | – | – | – | CCCCCCCCCCCCNS(=O)(=O)c1ccc(NC2=NN(c3c(Cl)cc(Cl)cc3Cl)C(=O)C2Sc2cc(C(C)(C)CC(C)(C)C)ccc2OCCCC)c(Cl)c1 (stereo not drawn) [Coupler M1] |
| 7.9 | – | – | – | CCCCCCCCCCCCNS(=O)(=O)c1ccc(NC2=NN(c3c(Cl)cc(Cl)cc3Cl)C(=O)C2Sc2ccccc2NC(=O)CCCCCCCCCCC)c(Cl)c1 (stereo not drawn) [Coupler M8] |
| 8.4 | – | – | 8.9 | CCCCCCCCCCCCCCCCCCNS(=O)(=O)c1ccc(Cl)c(NC2=NN(c3c(Cl)cc(Cl)cc3Cl)C(=O)C2Sc2cc(C(C)C)ccc2C(C)C)c1 (stereo not drawn) [Coupler M20] |

Second part, the compound before the results:

| Structure (SMILES) | pKa(0.5M K+) [1] | pKa(0.5M K+) [2] | pKa(0.5M K+) [3] | pKa(0.5M K+) (coupler solvent C1, coupler:solvent weight ratio 1:2, 0.50 M potassium) |
| --- | --- | --- | --- | --- |
| CCCCCCCCCCCCCC(=O)Nc1ccc(Cl)c(NC2=NN(c3c(Cl)cc(Cl)cc3Cl)C(=O)C2Sc2ccccc2NC(=O)C(CC)Oc2ccc(C(C)(C)CC)cc2C(C)(C)CC)c1 (stereo not drawn) [Coupler M3] | – | 8.2 | 7.9 | – |
| CCCCCCCCCCCCNS(=O)(=O)c1ccc(NC2=NN(c3c(Cl)cc(Cl)cc3Cl)C(=O)C2Sc2ccccc2NC(=O)C(CC)Oc2ccc(C(C)(C)CC)cc2C(C)(C)CC)c(Cl)c1 (stereo not drawn) [Coupler M4] | – | 8.0 | 7.6 | – |
| CCCCCCCCCCCCCCCC(=O)Nc1ccc(Cl)c(NC2=NN(c3c(Cl)c(Cl)c(Cl)c(Cl)c3Cl)C(=O)C2Sc2ccccc2NC(=O)OCc2ccccc2)c1 (stereo not drawn) [Coupler M7] | 7.5 | – | – | – |
